# Experimental data as given in US12178810B2 (priority 2016, dated 2024).
# How the values were obtained:
# [1] = test system: Healthy human male volunteers; assay: Retrospective analysis of the Phase 1 DDI study: heart rate and blood pressure at rest; assay type: in vivo
# Excerpt: FIG. 2. […] By ‘t’ test—Wilcoxon matched-pairs signed rank test.
# (§1) Healthy human male volunteers, 18-50 years of age. A total of 14 subjects were included in the study.
# (§2) Two consecutive study periods separated by a washout period of at least three days. The sequence of events was the same for all subjects.
# Particularly, the effect of tesofensine-metoprolol on heart rate and blood pressure at rest, was investigated.
# [2] = test system: healthy male subjects; settings: metoprolol alone; cited from earlier work
# [3] = target: T1, CYP2D6 (Homo sapiens, UniProt P10635); assay: Phase 1 drug-drug interaction (DDI) study with metoprolol: metoprolol pharmacokinetics without and with tesofensine at steady state; assay type: in vivo; settings: metoprolol 50 mg single dose after 14 days tesofensine vs metoprolol alone
# T1 construct: Healthy human male volunteers, 18-50 years of age; A total of 14 subjects were included in the study; from tissue; host or cells: in vivo, healthy human male volunteers (endogenous enzyme)
# T1 sequence (P10635 whole entry): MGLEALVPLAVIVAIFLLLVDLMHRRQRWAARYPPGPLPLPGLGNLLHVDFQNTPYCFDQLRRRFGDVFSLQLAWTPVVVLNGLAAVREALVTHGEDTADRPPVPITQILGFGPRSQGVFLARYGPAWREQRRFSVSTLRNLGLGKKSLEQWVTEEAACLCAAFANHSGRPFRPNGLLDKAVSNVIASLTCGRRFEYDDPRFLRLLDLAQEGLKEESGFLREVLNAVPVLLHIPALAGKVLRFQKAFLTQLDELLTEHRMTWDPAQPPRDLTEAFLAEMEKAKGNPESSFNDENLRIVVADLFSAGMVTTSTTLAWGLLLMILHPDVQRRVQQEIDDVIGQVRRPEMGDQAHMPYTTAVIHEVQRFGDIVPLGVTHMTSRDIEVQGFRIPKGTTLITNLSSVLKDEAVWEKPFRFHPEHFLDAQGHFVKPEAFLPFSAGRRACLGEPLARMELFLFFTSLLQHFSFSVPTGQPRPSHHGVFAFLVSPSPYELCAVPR
# Excerpt: FIG. 1. PK of metoprolol after a single dosing in absence and presence of tesofensine at steady state.
# as §1, §2
# [4] = test system: obese patients; settings: long-term treatment, corrected for placebo and diet effects; cited from earlier work
Compound,"effect on tesofensine-induced increase in heart rate, 7 hours after single metoprolol dose ([1]; day 14, tesofensine treated subjects, 7 hours after metoprolol)","effect on heart rate, ~24 hours after single metoprolol dose ([1]; day 15, tesofensine treated subjects, ~24 hours after metoprolol)",decrease in supine diastolic blood pressure [2],decrease in supine systolic blood pressure [2],effect on metoprolol Cmax [3],effect on metoprolol Tmax [3],"heart rate after 14 days of tesofensine vs prelevel ([1]; tesofensine only, day 14, p<0.01 vs prelevel)","diastolic BP after 14 days of tesofensine treatment ([1]; tesofensine only, vs pre-treatment)","systolic BP after 14 days of tesofensine treatment ([1]; tesofensine only, vs pre-treatment, not significant)",weight loss [4]
"COCCc1ccc(OCC(O)CNC(C)C)cc1 (stereo not shown) [metoprolol, 1-(Isopropylamino)-3-[4-(2-methoxyethyl)-phenoxy]-propan-2-ol]",normalize the tesofensine-induced increase in heart rate,disappeared,about 4 mmHg,about 4 mmHg,,,,,,
"CCOC[C@@H]1[C@@H](c2ccc(Cl)c(Cl)c2)C[C@@H]2CC[C@H]1N2C [tesofensine, (1R,2R,3S,5S)-3-(3,4-dichlorophenyl)-2-(ethoxymethyl)-8-methyl-8-azabicyclo[3.2.1]octane]",,,,,no effect,no effect,Increase in heart rate,essentially not altered,increase systolic BP slightly,about 10%
